Reference: patent publication US10202361B2, “Pyridazinones as herbicides” (E I DU PONT DE NEMOURS AND COMPANY, priority 2014, dated 2019)

Columns and labels:
Assay in all cases: Test E pre-/postemergence greenhouse herbicide test
Format in all cases: in vivo
[1] = tested on: dayflower, VA (Virginia dayflower, Commelina virginica); settings: scale 0 to 100
Source text: (§1) Seeds of plant species selected from corn (Zea mays), soybean (Glycine max), lambsquarters (Chenopodium album), poinsettia, wild (wild poinsettia, Euphorbia heterophylla), pigweed, palmer (palmer pigweed, Amaranthus palmeri), waterhemp (common waterhemp, Amaranthus rudis), surinam grass (Brachiaria decumbens), crabgrass, large (large crabgrass Digitaria sanguinalis), crabgrass, Brazil (Brazilian crabgrass, Digitaria horizontalis), panicum, fall (fall panicum, Panicum dichotomiflorum), foxtail, giant (giant foxtail, Setaria faberii), foxtail, green (green foxtail, Setaria viridis), goosegrass (Eleusine indica), johnsongrass (Sorghum halepense), ragweed (common ragweed, Ambrosia elatior), barnyardgrass (Echinochloa crus-galli), sandbur (southern sandbur, Cenchrus echinatus), arrowleaf sida (Sida rhombifolia), ryegrass, Italian (Italian ryegrass, Lolium multiflorum), dayflower, VA (Virginia dayflower, Commelina virginica), field bindweed (Convolvulus arvensis), cocklebur (common cocklebur, Xanthium strumarium), morningglory (Ipomoea coccinea), nightshade (eastern black nightshade, Solanum ptycanthum), kochia (Kochia scoparia), nutsedge, yellow (yellow nutsedge, Cyperus esculentus), smartweed (ladysthumb smartweed, Polygonum persicaria), velvetleaf (Abutilon theophrasti), and beggarticks (hairy beggarticks, Bidens pilosa), were planted into a silt loam soil and treated preemergence with test chemicals formulated in a non-phytotoxic solvent mixture which included a surfactant.
(§2) At the same time, plants from these crop and weed species and also waterhemp_RES1, (ALS & Triazine resistant common waterhemp, Amaranthus rudis), and waterhemp_RES2, (ALS & HPPD resistant common waterhemp, Amaranthus rudis) were planted in pots containing Redi-Earth® planting medium (Scotts Company, 14111 Scottslawn Road, Marysville, Ohio 43041) comprising spaghnum peat moss, vermiculite, wetting agent and starter nutrients were treated with postemergence applications of test chemicals formulated in the same manner. Plants ranged in height from 2 to 18 cm for postemergence treatments (1- to 4-leaf stage). Treated plants and controls were maintained in a greenhouse for 14 to 21 d, after which time all species were compared to controls and visually evaluated. Plant response ratings, summarized in Table E, are based on a scale of 0 to 100 where 0 is no effect and 100 is complete control. A dash (-) response means no test result.

[2] = tested on: beggarticks (hairy beggarticks, Bidens pilosa); settings: scale 0 to 100
Source text: as §1, §2

kochia (Kochia scoparia) = settings: Preemergence, scale 0 to 100
Source text: as §1, §2

[3] = tested on: morningglory (Ipomoea coccinea); settings: Preemergence, scale 0 to 100
Source text: as §1, §2

[4] = tested on: waterhemp (common waterhemp, Amaranthus rudis); settings: scale 0 to 100
Source text: as §1, §2

[5] = tested on: sandbur (southern sandbur, Cenchrus echinatus); settings: scale 0 to 100
Source text: as §1, §2

[6] = tested on: foxtail, green (green foxtail, Setaria viridis); settings: Preemergence, scale 0 to 100
Source text: as §1, §2

[7] = tested on: crabgrass, Brazil (Brazilian crabgrass, Digitaria horizontalis); settings: scale 0 to 100
Source text: as §1, §2

[8] = tested on: lambsquarters (Chenopodium album); settings: Preemergence, scale 0 to 100
Source text: as §1, §2

[9] = tested on: arrowleaf sida (Sida rhombifolia); settings: scale 0 to 100
Source text: as §1, §2

[10] = tested on: barnyardgrass (Echinochloa crus-galli); settings: scale 0 to 100
Source text: as §1, §2

[11] = tested on: pigweed, palmer (palmer pigweed, Amaranthus palmeri); settings: scale 0 to 100
Source text: as §1, §2

soybean (Glycine max) = settings: scale 0 to 100
Source text: as §1, §2

corn (Zea mays) = settings: scale 0 to 100
Source text: as §1, §2

[12] = tested on: johnsongrass (Sorghum halepense); settings: Preemergence, scale 0 to 100
Source text: as §1, §2

COc1cc(=O)n(-c2ccc(C(F)(F)F)cc2)nc1Cc1ccnc(C(F)(F)F)c1 [Compound 16, 5-methoxy-2-[4-(trifluoromethyl)phenyl]-6-[[2-(trifluoromethyl)-4-pyridinyl]methyl]-3(2H)-pyridazinone]
Plant response rating: Dayflower, VA ([1]; Postemergence, 62 g ai/ha): 20 | Plant response rating: Dayflower, VA ([1]; Postemergence, 125 g ai/ha): 60 | Plant response rating: Dayflower, VA ([1]; Postemergence, 250 g ai/ha): 70 | Plant response rating: Dayflower, VA ([1]; Preemergence, 62 g ai/ha): 5 | Plant response rating: Dayflower, VA ([1]; Preemergence, 125 g ai/ha): 20 | Plant response rating: Dayflower, VA ([1]; Preemergence, 250 g ai/ha): 65 | Plant response rating: Beggarticks ([2]; Postemergence, 62 g ai/ha): 30 | Plant response rating: Beggarticks ([2]; Postemergence, 125 g ai/ha): 50 | Plant response rating: Beggarticks ([2]; Postemergence, 250 g ai/ha): 50 | Plant response rating: Beggarticks ([2]; Preemergence, 62 g ai/ha): 0 | Plant response rating: Beggarticks ([2]; Preemergence, 125 g ai/ha): 0 | Plant response rating: Beggarticks ([2]; Preemergence, 250 g ai/ha): 20 | Plant response rating: Kochia (kochia (Kochia scoparia); 62 g ai/ha): 98 | Plant response rating: Kochia (kochia (Kochia scoparia); 125 g ai/ha): 98 | Plant response rating: Kochia (kochia (Kochia scoparia); 250 g ai/ha): 98 | Plant response rating: Morningglory ([3]; 62 g ai/ha): 25 | Plant response rating: Morningglory ([3]; 125 g ai/ha): 65 | Plant response rating: Morningglory ([3]; 250 g ai/ha): 80 | Plant response rating: Waterhemp ([4]; Postemergence, 62 g ai/ha): 80 | Plant response rating: Waterhemp ([4]; Postemergence, 125 g ai/ha): 80 | Plant response rating: Waterhemp ([4]; Postemergence, 250 g ai/ha): 100 | Plant response rating: Waterhemp ([4]; Preemergence, 62 g ai/ha): 100 | Plant response rating: Waterhemp ([4]; Preemergence, 125 g ai/ha): 100 | Plant response rating: Waterhemp ([4]; Preemergence, 250 g ai/ha): 100 | Plant response rating: Sandbur ([5]; Postemergence, 62 g ai/ha): 30 | Plant response rating: Sandbur ([5]; Postemergence, 125 g ai/ha): 35 | Plant response rating: Sandbur ([5]; Postemergence, 250 g ai/ha): 50 | Plant response rating: Sandbur ([5]; Preemergence, 62 g ai/ha): 40 | Plant response rating: Sandbur ([5]; Preemergence, 125 g ai/ha): 65 | Plant response rating: Sandbur ([5]; Preemergence, 250 g ai/ha): 80 | Plant response rating: Foxtail, Green ([6]; 62 g ai/ha): 50 | Plant response rating: Foxtail, Green ([6]; 125 g ai/ha): 95 | Plant response rating: Foxtail, Green ([6]; 250 g ai/ha): 100 | Plant response rating: Crabgrass, Brazil ([7]; Postemergence, 62 g ai/ha): 20 | Plant response rating: Crabgrass, Brazil ([7]; Postemergence, 125 g ai/ha): 30 | Plant response rating: Crabgrass, Brazil ([7]; Postemergence, 250 g ai/ha): 50 | Plant response rating: Crabgrass, Brazil ([7]; Preemergence, 62 g ai/ha): 100 | Plant response rating: Crabgrass, Brazil ([7]; Preemergence, 125 g ai/ha): 100 | Plant response rating: Crabgrass, Brazil ([7]; Preemergence, 250 g ai/ha): 100 | Plant response rating: Lambsquarters ([8]; 62 g ai/ha): 98 | Plant response rating: Lambsquarters ([8]; 125 g ai/ha): 98 | Plant response rating: Lambsquarters ([8]; 250 g ai/ha): 100 | Plant response rating: Arrowleaf Sida ([9]; Postemergence, 62 g ai/ha): 60 | Plant response rating: Arrowleaf Sida ([9]; Postemergence, 250 g ai/ha): 80 | Plant response rating: Arrowleaf Sida ([9]; Preemergence, 62 g ai/ha): 0 | Plant response rating: Arrowleaf Sida ([9]; Preemergence, 125 g ai/ha): 0 | Plant response rating: Arrowleaf Sida ([9]; Preemergence, 250 g ai/ha): 5 | Plant response rating: Barnyardgrass ([10]; Postemergence, 62 g ai/ha): 15 | Plant response rating: Barnyardgrass ([10]; Postemergence, 125 g ai/ha): 30 | Plant response rating: Barnyardgrass ([10]; Postemergence, 250 g ai/ha): 50 | Plant response rating: Barnyardgrass ([10]; Preemergence, 62 g ai/ha): 35 | Plant response rating: Barnyardgrass ([10]; Preemergence, 125 g ai/ha): 50 | Plant response rating: Barnyardgrass ([10]; Preemergence, 250 g ai/ha): 70 | Plant response rating: Pigweed, Palmer ([11]; Postemergence, 62 g ai/ha): 70 | Plant response rating: Pigweed, Palmer ([11]; Postemergence, 125 g ai/ha): 75 | Plant response rating: Pigweed, Palmer ([11]; Postemergence, 250 g ai/ha): 95 | Plant response rating: Pigweed, Palmer ([11]; Preemergence, 62 g ai/ha): 98 | Plant response rating: Pigweed, Palmer ([11]; Preemergence, 125 g ai/ha): 98 | Plant response rating: Pigweed, Palmer ([11]; Preemergence, 250 g ai/ha): 98 | Plant response rating: Soybean (soybean (Glycine max); Postemergence, 62 g ai/ha): 35 | Plant response rating: Soybean (soybean (Glycine max); Postemergence, 125 g ai/ha): 50 | Plant response rating: Soybean (soybean (Glycine max); Postemergence, 250 g ai/ha): 85 | Plant response rating: Soybean (soybean (Glycine max); Preemergence, 62 g ai/ha): 0 | Plant response rating: Soybean (soybean (Glycine max); Preemergence, 125 g ai/ha): 20 | Plant response rating: Soybean (soybean (Glycine max); Preemergence, 250 g ai/ha): 50 | Plant response rating: Corn (corn (Zea mays); Postemergence, 62 g ai/ha): 30 | Plant response rating: Corn (corn (Zea mays); Postemergence, 125 g ai/ha): 40 | Plant response rating: Corn (corn (Zea mays); Postemergence, 250 g ai/ha): 50 | Plant response rating: Corn (corn (Zea mays); Preemergence, 62 g ai/ha): 40 | Plant response rating: Corn (corn (Zea mays); Preemergence, 125 g ai/ha): 40 | Plant response rating: Corn (corn (Zea mays); Preemergence, 250 g ai/ha): 65 | Plant response rating: Johnsongrass ([12]; 62 g ai/ha): 35 | Plant response rating: Johnsongrass ([12]; 125 g ai/ha): 60 | Plant response rating: Johnsongrass ([12]; 250 g ai/ha): 60
